# Measurements as given in patent publication US20050261264A1, “Rare-earth ternary complex” (priority 2000, published 2005).
# What was measured:
# Format in all cases: physicochemical
# [1] = Number of moles of bound water per mole of complex (TG-DTA); details: for Bound water (number of moles of bound water per mole of complex): Table 1, dried samples for the ternary complexes
# Description: The number of moles of bound water per mole of complex was measured using a TG-DTA 2000 from MAC Science.
# A 20 g quantity of Eu(PMS)3 was added to 100 mL of isopropanol, then 43 g ([…] the molar amount of the Eu(PMS)3) of triphenylphosphine oxide (hereinafter referred to as TPPO) was added, and the system was refluxed for 3 hours, and then gradually cooled. The resulting white powder was filtered off. The white powder thus obtained was washed with hot n-hexane, and recrystallized with water-methanol to obtain 44 g of Eu(PMS)3(TPPO)8 in the form of white acicular crystals (yield: 85%). The TG-DTA was measured for these crystals, and it was found from the weight reduction at 100° C. that the number of moles of bound water per mole of complex was 2.93. The IR, NMR, UV absorption characteristics, and elemental analysis results for the obtained Eu(PMS)3(TPPO)8(H2O)2.93 are given below.
# Eu(PMS)3(TPPO)8(H2O)2.93 obtained by the above synthesis method was dried in vacuo for 3 hours at 140° C. and a reduced pressure of […]. TG-DTA measurement for the resulting white powder was carried out to obtain a weight reduction at 100° C. It was found from the obtained value that the number of moles of bound water per mole of complex was 0.18.
# [2] = Miscibility with a polymer matrix, visual evaluation; parameters: key to Miscibility, PMMA: ⊚: dissolves up to 30 wt %; ◯: dissolves up to 5 wt %; Δ: disperses up to 5 wt %, but there is turbidity; X: repelled at the polymer surface
# Description: (§1) The miscibility of the rare earth complex with various media was evaluated as follows.
# 2) Miscibility with a Polymer Matrix
# The rare earth complex serving as the sample was added in the concentrations listed with the evaluation criteria below relative to various media, and the miscibility was visually evaluated according to the following criteria. • ⊚: dissolves up to 30 wt % • ◯: dissolves up to 5 wt % • Δ: disperses up to 5 wt %, but there is turbidity • X: repelled at the polymer surface
# [3] = Miscibility with solvents, visual evaluation at 5 wt %; parameters: key: ⊚: dissolves at room temperature; ◯: dissolves when heated for 5 minutes at 40° C.; Δ: dissolves under heating, but cooling precipitates crystals; X: does not dissolve; details: complex added at 5 wt %
# Description: as §1
# 1) Miscibility with Solvents
# [4] = Luminescence quantum yield and luminescence intensity in solution; details: acetonitrile solution
# Description: The intensity of luminescence and the luminescence quantum yield, the quotient of dividing the number of photons emitted from a sample by the number of photons absorbed into the sample, were measured with an SS-25 from JASCO Corporation.
# The luminescence quantum yield of an acetonitrile solution of the Eu(PMS)3(TPPO)8 obtained in Example 1 (europium ion concentration: 0.05 mol/L) was measured (excitation wavelength: 465 nm, maximum luminescence wavelength: 612 nm, luminescence wavelength used in measurement: 612 nm).
# The solutions prepared in Examples 12 to 14 and Comparative Examples 7 to 9 and Comparative Example B were measured for luminescence intensity at the respective maximum luminescence wavelengths.
# The relative luminescence intensity of the solutions used in Examples 12 to 14 and Comparative Example B: (luminescence intensity in each of Examples 12 to 14)/(luminescence intensity in Comparative Example 7) was calculated, letting 1 be the luminescence intensity in Comparative Example 7 (solution of a rare earth complex in which the ligand Z was not coordinated).
# Similarly, the relative luminescence intensity in Comparative Example 9: (luminescence intensity in Comparative Example 9)/(luminescence intensity in Comparative Example 8) was calculated, letting 1 be the luminescence intensity in Comparative Example 8 (solution of a known β-diketone-type of rare earth complex in which the ligand Z was not coordinated). The relative luminescence intensity of the solution used in Comparative Example B was 1.6 times.
# The luminescence quantum yield of an acetone-d6 solution of the Nd(PMS)3(TPPO)8 obtained in Example 2 (neodymium ion concentration: 0.05 mol/L) was measured (excitation wavelength: 585 nm, maximum luminescence wavelength: 1064 nm, luminescence wavelength used in measurement: 1064 nm).
# The solutions prepared in Examples 15 and 16 and Comparative Examples 10 were measured for luminescence intensity at the respective maximum luminescence wavelengths. The relative luminescence intensity in Examples 15 and 16: (luminescence intensity in each of Examples 15 and 16)/(luminescence intensity in Comparative Example 10) was calculated, letting 1 be the luminescence intensity in Comparative Example 10 (rare earth complex in which the ligand Z was not coordinated).
# [5] = after drying in vacuo at 140° C.
# [6] = before drying (crystals as obtained), weight reduction at 100° C.
Structure (SMILES),Bound water (number of moles of bound water per mole of complex) [1],"Number of moles of bound water per mole of complex [1, 5]","Miscibility, Epoxy resin [2]","Miscibility, Nafion [2]","Miscibility, PMMA [2]","Miscibility, Acetone [3]","Miscibility, Chloroform [3]","Miscibility, Toluene [3]","Miscibility, Water [3]","Relative luminescence intensity ([4]; Eu 0.05 mol/L, relative to Eu(PMS)3 (Comparative Example 7) = 1)","Luminescence quantum yield ([4]; europium ion 0.05 mol/L, excitation 465 nm, luminescence 612 nm) [%]","Number of moles of bound water per mole of complex [1, 6]"
O=P(c1ccccc1)(c1ccccc1)c1ccccc1.O=P(c1ccccc1)(c1ccccc1)c1ccccc1.O=P(c1ccccc1)(c1ccccc1)c1ccccc1.O=P(c1ccccc1)(c1ccccc1)c1ccccc1.O=P(c1ccccc1)(c1ccccc1)c1ccccc1.O=P(c1ccccc1)(c1ccccc1)c1ccccc1.O=P(c1ccccc1)(c1ccccc1)c1ccccc1.O=P(c1ccccc1)(c1ccccc1)c1ccccc1.O=S(=O)([N-]S(=O)(=O)C(F)(F)C(F)(F)F)C(F)(F)C(F)(F)F.O=S(=O)([N-]S(=O)(=O)C(F)(F)C(F)(F)F)C(F)(F)C(F)(F)F.O=S(=O)([N-]S(=O)(=O)C(F)(F)C(F)(F)F)C(F)(F)C(F)(F)F.[Eu+3] [Eu(PES)3(TPPO)8],0.19,0.19,◯ (dissolves up to 5 wt %),◯ (dissolves up to 5 wt %),◯ (dissolves up to 5 wt %),⊚,⊚,◯,X,–,–,–
"O=S(=O)([N-]S(=O)(=O)C(F)(F)F)C(F)(F)F.O=S(=O)([N-]S(=O)(=O)C(F)(F)F)C(F)(F)F.O=S(=O)([N-]S(=O)(=O)C(F)(F)F)C(F)(F)F.[2H]C([2H])([2H])S(=O)C([2H])([2H])[2H].[2H]C([2H])([2H])S(=O)C([2H])([2H])[2H].[2H]C([2H])([2H])S(=O)C([2H])([2H])[2H].[2H]C([2H])([2H])S(=O)C([2H])([2H])[2H].[2H]C([2H])([2H])S(=O)C([2H])([2H])[2H].[2H]C([2H])([2H])S(=O)C([2H])([2H])[2H].[2H]C([2H])([2H])S(=O)C([2H])([2H])[2H].[2H]C([2H])([2H])S(=O)C([2H])([2H])[2H].[Eu+3] [Eu(PMS)3 (DMSO-d6)8, reference compound]",–,–,–,–,–,–,–,–,–,1.6,44.0,–
"O=C(C=C([O-])C(F)(F)F)C(F)(F)F.O=C(C=C([O-])C(F)(F)F)C(F)(F)F.O=C(C=C([O-])C(F)(F)F)C(F)(F)F.O=P(c1ccccc1)(c1ccccc1)c1ccccc1.O=P(c1ccccc1)(c1ccccc1)c1ccccc1.[Nd+3] [Nd(HFA)3(TPPO)2, reference compound]",0.00,–,◯ (dissolves up to 5 wt %),"Δ (disperses up to 5 wt %, but there is turbidity)","Δ (disperses up to 5 wt %, but there is turbidity)",⊚,◯,◯,X,–,–,–
"O=C(C=C([O-])C(F)(F)F)C(F)(F)F.O=C(C=C([O-])C(F)(F)F)C(F)(F)F.O=C(C=C([O-])C(F)(F)F)C(F)(F)F.[Nd+3] [Nd(HFA)3, reference compound]",2.00,–,◯ (dissolves up to 5 wt %),"Δ (disperses up to 5 wt %, but there is turbidity)",X,⊚,X,X,X,–,–,–
O=S(=O)([N-]S(=O)(=O)C(F)(F)F)C(F)(F)F.O=S(=O)([N-]S(=O)(=O)C(F)(F)F)C(F)(F)F.O=S(=O)([N-]S(=O)(=O)C(F)(F)F)C(F)(F)F.[Nd+3].c1cnc2c(c1)ccc1cccnc12.c1cnc2c(c1)ccc1cccnc12.c1cnc2c(c1)ccc1cccnc12.c1cnc2c(c1)ccc1cccnc12 [Nd(PMS)3(Phen)m],0.00,–,◯ (dissolves up to 5 wt %),◯ (dissolves up to 5 wt %),◯ (dissolves up to 5 wt %),⊚,Δ,Δ,X,–,–,–
O=S(=O)([N-]S(=O)(=O)C(F)(F)F)C(F)(F)F.O=S(=O)([N-]S(=O)(=O)C(F)(F)F)C(F)(F)F.O=S(=O)([N-]S(=O)(=O)C(F)(F)F)C(F)(F)F.O=S(c1ccccc1)c1ccccc1.O=S(c1ccccc1)c1ccccc1.O=S(c1ccccc1)c1ccccc1.O=S(c1ccccc1)c1ccccc1.O=S(c1ccccc1)c1ccccc1.O=S(c1ccccc1)c1ccccc1.O=S(c1ccccc1)c1ccccc1.O=S(c1ccccc1)c1ccccc1.[Tb+3] [Tb(PMS)3(DPSO)8],0.00,–,◯ (dissolves up to 5 wt %),◯ (dissolves up to 5 wt %),◯ (dissolves up to 5 wt %),⊚,◯,◯,X,–,–,–
O=P(c1ccccc1)(c1ccccc1)c1ccccc1.O=P(c1ccccc1)(c1ccccc1)c1ccccc1.O=P(c1ccccc1)(c1ccccc1)c1ccccc1.O=P(c1ccccc1)(c1ccccc1)c1ccccc1.O=P(c1ccccc1)(c1ccccc1)c1ccccc1.O=P(c1ccccc1)(c1ccccc1)c1ccccc1.O=P(c1ccccc1)(c1ccccc1)c1ccccc1.O=P(c1ccccc1)(c1ccccc1)c1ccccc1.O=S(=O)([N-]S(=O)(=O)C(F)(F)F)C(F)(F)F.O=S(=O)([N-]S(=O)(=O)C(F)(F)F)C(F)(F)F.O=S(=O)([N-]S(=O)(=O)C(F)(F)F)C(F)(F)F.[Tb+3] [Tb(PMS)3(TPPO)8],0.08,0.08,◯ (dissolves up to 5 wt %),◯ (dissolves up to 5 wt %),◯ (dissolves up to 5 wt %),⊚,⊚,◯,X,–,–,1.27
O=P(c1ccccc1)(c1ccccc1)c1ccccc1.O=P(c1ccccc1)(c1ccccc1)c1ccccc1.O=P(c1ccccc1)(c1ccccc1)c1ccccc1.O=P(c1ccccc1)(c1ccccc1)c1ccccc1.O=P(c1ccccc1)(c1ccccc1)c1ccccc1.O=P(c1ccccc1)(c1ccccc1)c1ccccc1.O=P(c1ccccc1)(c1ccccc1)c1ccccc1.O=P(c1ccccc1)(c1ccccc1)c1ccccc1.O=S(=O)([N-]S(=O)(=O)C(F)(F)F)C(F)(F)F.O=S(=O)([N-]S(=O)(=O)C(F)(F)F)C(F)(F)F.O=S(=O)([N-]S(=O)(=O)C(F)(F)F)C(F)(F)F.[Yb+3] [Yb(PMS)3(TPPO)8],0.27,0.27,◯ (dissolves up to 5 wt %),◯ (dissolves up to 5 wt %),◯ (dissolves up to 5 wt %),⊚,⊚,◯,X,–,–,1.52
